Assay results published in ChEMBL document CHEMBL1201861, “Genomics of Drug Sensitity in Cancer screening data, Wellcome Trust Sanger Institute”.

What was measured:
Assay in all cases: cells
Type in all cases: functional, cell-based, Homo sapiens
KNS-81-FD = settings: Homo sapiens, KNS-81-FD;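 note: growth inhibition of KNS-81-FD cells, read out with a cell viability assay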
Description: SANGER: Inhibition of human KNS-81-FD cell growth in a cell viability assay.

SNU1 = settings: Homo sapiens, SNU1;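 note: growth inhibition of human NCI-SNU-1 cells, measured with a cell viability assay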
Description: SANGER: Inhibition of human NCI-SNU-1 cell growth in a cell viability assay.

COLO-668 = settings: Homo sapiens, COLO-668
Description: SANGER: Inhibition of human COLO-668 cell growth in a cell viability assay.

VA-ES-BJ = settings: Homo sapiens, VA-ES-BJ;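 note: growth inhibition of the VA-ES-BJ cell line, read out by a cell viability assay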
Description: SANGER: Inhibition of human VA-ES-BJ cell growth in a cell viability assay.

BB49-HNC = settings: Homo sapiens, BB49-HNC;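 note: cell viability assay read-out, reported as inhibition of BB49-HNC cell growth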
Description: SANGER: Inhibition of human BB49-HNC cell growth in a cell viability assay.

KLE = settings: Homo sapiens, KLE;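 note: growth inhibition of human KLE cells, read out with a cell viability assay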
Description: SANGER: Inhibition of human KLE cell growth in a cell viability assay.

TE-12 = settings: Homo sapiens, TE-12;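 note: growth inhibition of TE-12 cells, read out by a cell viability assay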
Description: SANGER: Inhibition of human TE-12 cell growth in a cell viability assay.

COLO-684 = settings: Homo sapiens, COLO-684
Description: SANGER: Inhibition of human COLO-684 cell growth in a cell viability assay.

COLO-800 = settings: Homo sapiens, COLO-800;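 note: growth inhibition of COLO-800 cells, read out with a cell viability assay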
Description: SANGER: Inhibition of human COLO-800 cell growth in a cell viability assay.

SW982 = settings: Homo sapiens, SW982;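 note: growth inhibition of SW982 cells, read out with a cell viability assay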
Description: SANGER: Inhibition of human SW982 cell growth in a cell viability assay.

CP66-MEL = settings: Homo sapiens, CP66-MEL;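 note: growth inhibition of CP66-MEL cells determined in a cell viability assay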
Description: SANGER: Inhibition of human CP66-MEL cell growth in a cell viability assay.

NCI-H510A = settings: Homo sapiens, NCI-H510A;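 note: growth inhibition of NCI-H510A cells, read out with a cell viability assay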
Description: SANGER: Inhibition of human NCI-H510A cell growth in a cell viability assay.

RPMI-8866 = settings: Homo sapiens, RPMI-8866
Description: SANGER: Inhibition of human RPMI-8866 cell growth in a cell viability assay.

DSH1 = settings: Homo sapiens, DSH1;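 note: growth inhibition of human DSH1 cells, measured with a cell viability readout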
Description: SANGER: Inhibition of human DSH1 cell growth in a cell viability assay.

TGBC24TKB = settings: Homo sapiens, TGBC24TKB;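 note: growth inhibition of human TGBC24TKB cells, read out with a cell viability assay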
Description: SANGER: Inhibition of human TGBC24TKB cell growth in a cell viability assay.

ES7 = settings: Homo sapiens, ES7;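 note: growth inhibition of cultured human ES7 cells, read out as cell viability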
Description: SANGER: Inhibition of human ES7 cell growth in a cell viability assay.

no-11 = settings: Homo sapiens;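 note: growth inhibition of human NO-11 cells, read out with a cell viability assay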
Description: SANGER: Inhibition of human no-11 cell growth in a cell viability assay.

SNB-75 = settings: Homo sapiens, SNB-75;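 note: cell viability assay measuring growth inhibition of human SNB-75 cells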
Description: SANGER: Inhibition of human SNB75 cell growth in a cell viability assay.

ML-2 = settings: Homo sapiens, ML-2;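 note: growth inhibition of ML-2 cells, measured with a cell viability readout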
Description: SANGER: Inhibition of human ML-2 cell growth in a cell viability assay.

SCC-15 = settings: Homo sapiens, SCC-15;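 note: growth inhibition of SCC-15 cells, read out with a cell viability assay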
Description: SANGER: Inhibition of human SCC-15 cell growth in a cell viability assay.

LS-123 = settings: Homo sapiens, LS-123
Description: SANGER: Inhibition of human LS-123 cell growth in a cell viability assay.

HDLM-2 = settings: Homo sapiens, HDLM-2;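 note: cell viability assay measuring suppression of HDLM-2 proliferation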
Description: SANGER: Inhibition of human HDLM-2 cell growth in a cell viability assay.

EC-GI-10 = settings: Homo sapiens, EC-GI-10
Description: SANGER: Inhibition of human EC-GI-10 cell growth in a cell viability assay.

EW-18 = settings: Homo sapiens, EW-18;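 note: growth inhibition of EW-18 cells, read out by a cell viability assay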
Description: SANGER: Inhibition of human EW-18 cell growth in a cell viability assay.

NCI-H1648 = settings: Homo sapiens, NCI-H1648;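 note: cell viability assay measuring inhibition of NCI-H1648 cell growth, from the Sanger screening data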
Description: SANGER: Inhibition of human NCI-H1648 cell growth in a cell viability assay.

GB-1 = settings: Homo sapiens, GB-1;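 note: growth of GB-1 cells judged by a viability assay, IC50 marks the concentration inhibiting growth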
Description: SANGER: Inhibition of human GB-1 cell growth in a cell viability assay.

697 = settings: Homo sapiens
Description: SANGER: Inhibition of human 697 cell growth in a cell viability assay.

LXF-289 cell line = settings: Homo sapiens, LXF-289
Description: SANGER: Inhibition of human LXF-289 cell growth in a cell viability assay.

NKM-1 = settings: Homo sapiens, NKM-1;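 note: growth inhibition of NKM-1 cells, read out with a cell viability assay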
Description: SANGER: Inhibition of human NKM-1 cell growth in a cell viability assay.

ONS-76 = settings: Homo sapiens, ONS-76;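 note: growth inhibition of human ONS-76 cells, read out with a cell viability assay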
Description: SANGER: Inhibition of human ONS-76 cell growth in a cell viability assay.

SF-126 = settings: Homo sapiens, SF-126;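 note: growth inhibition of human SF126 cells, read out with a cell viability assay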
Description: SANGER: Inhibition of human SF126 cell growth in a cell viability assay.

EOL1 = settings: Homo sapiens, EOL1;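 note: growth inhibition of EoL-1 cells, read out by a cell viability assay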
Description: SANGER: Inhibition of human EoL-1-cell cell growth in a cell viability assay.

ES1 = settings: Homo sapiens, ES1;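 note: growth inhibition of ES1 cells, read out with a cell viability assay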
Description: SANGER: Inhibition of human ES1 cell growth in a cell viability assay.

SK-UT-1 = settings: Homo sapiens, SK-UT-1;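 note: growth inhibition of SK-UT-1 cells, measured by a cell viability assay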
Description: SANGER: Inhibition of human SK-UT-1 cell growth in a cell viability assay.

U-266 = settings: Homo sapiens, U-266
Description: SANGER: Inhibition of human U-266 cell growth in a cell viability assay.

TGBC1TKB = settings: Homo sapiens, TGBC1TKB;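 note: growth inhibition of TGBC1TKB cells, read out by a cell viability assay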
Description: SANGER: Inhibition of human TGBC1TKB cell growth in a cell viability assay.

GT3TKB = settings: Homo sapiens, GT3TKB;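 note: growth inhibition of the cell line, read out with a cell viability assay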
Description: SANGER: Inhibition of human GT3TKB cell growth in a cell viability assay.

SW872 = settings: Homo sapiens, SW872;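 note: growth inhibition of SW872 cells, read out by a viability assay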
Description: SANGER: Inhibition of human SW872 cell growth in a cell viability assay.

MHH-NB-11 = settings: Homo sapiens, MHH-NB-11;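 note: growth inhibition of human MHH-NB-11 cells, read out by a cell viability assay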
Description: SANGER: Inhibition of human MHH-NB-11 cell growth in a cell viability assay.

A253 cell line = settings: Homo sapiens, A253;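 note: growth inhibition of A253 cells, read out with a cell viability assay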
Description: SANGER: Inhibition of human A253 cell growth in a cell viability assay.

KMOE-2 = settings: Homo sapiens, KMOE-2;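 note: growth inhibition of human KMOE-2 cells, read out with a cell viability assay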
Description: SANGER: Inhibition of human KMOE-2 cell growth in a cell viability assay.

LAN-6 = settings: Homo sapiens, LAN-6;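 note: growth inhibition of LAN-6 cells, determined with a cell viability assay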
Description: SANGER: Inhibition of human LAN-6 cell growth in a cell viability assay.

COLO-829 = settings: Homo sapiens, COLO-829
Description: SANGER: Inhibition of human COLO-829 cell growth in a cell viability assay.

MHH-PREB-1 = settings: Homo sapiens, MHH-PREB-1;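 note: cell viability assay measuring inhibition of proliferation of human MHH-PREB-1 cells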
Description: SANGER: Inhibition of human MHH-PREB-1 cell growth in a cell viability assay.

TE-8 = settings: Homo sapiens, TE-8;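 note: growth inhibition of TE-8 cells, measured with a cell viability readout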
Description: SANGER: Inhibition of human TE-8 cell growth in a cell viability assay.

LB1047-RCC = settings: Homo sapiens, LB1047-RCC;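 note: inhibition of cell growth, determined with a cell viability assay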
Description: SANGER: Inhibition of human LB1047-RCC cell growth in a cell viability assay.

NB69 = settings: Homo sapiens, NB69;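 note: growth inhibition of NB69 cells, determined by a cell viability assay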
Description: SANGER: Inhibition of human NB69 cell growth in a cell viability assay.

CTV-1 = settings: Homo sapiens, CTV-1;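 note: growth inhibition of the cell line, read out with a cell viability assay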
Description: SANGER: Inhibition of human CTV-1 cell growth in a cell viability assay.

CCRF-CEM = settings: Homo sapiens, CCRF-CEM;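 note: inhibition of CCRF-CEM cell growth, measured by a cell viability assay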
Description: SANGER: Inhibition of human CCRF-CEM cell growth in a cell viability assay.

Question: How did the IC50 (KNS-81-FD) turn out when `COc1cc2ncn(-c3cc(OCc4ccccc4C(F)(F)F)c(C(N)=O)s3)c2cc1OC` [GW843682X] was run?
Answer: > 0.256 µM

Question: And the IC50 (SNU1)?
Answer: > 0.256 µM

Question: What about the IC50 (COLO-668) of the same molecule?
Answer: > 0.256 µM

Question: What about the IC50 (VA-ES-BJ) of the same molecule?
Answer: 0.0227 µM

Question: And the IC50 (BB49-HNC)?
Answer: > 0.256 µM

Question: What about the IC50 (KLE) of the same molecule?
Answer: 0.213 µM

Question: What about the IC50 (TE-12) of the same molecule?
Answer: 0.0273 µM

Question: And the IC50 (COLO-684)?
Answer: 0.0954 µM

Question: And the IC50 (COLO-800)?
Answer: > 0.256 µM

Question: And the IC50 (SW982)?
Answer: 0.0253 µM

Question: And the IC50 (CP66-MEL)?
Answer: 0.162 µM

Question: And the IC50 (NCI-H510A)?
Answer: 0.0166 µM

Question: And the IC50 (RPMI-8866)?
Answer: > 0.256 µM

Question: And the IC50 (DSH1)?
Answer: > 0.256 µM

Question: And the IC50 (TGBC24TKB)?
Answer: 0.045 µM

Question: What about the IC50 (ES7) of the same molecule?
Answer: > 0.256 µM

Question: What about the IC50 (no-11) of the same molecule?
Answer: 0.178 µM

Question: And the IC50 (SNB-75)?
Answer: 0.0979 µM

Question: What about the IC50 (ML-2) of the same molecule?
Answer: 0.0503 µM

Question: And the IC50 (SCC-15)?
Answer: > 0.256 µM

Question: What about the IC50 (LS-123) of the same molecule?
Answer: 0.193 µM

Question: What about the IC50 (HDLM-2) of the same molecule?
Answer: 0.0695 µM

Question: And the IC50 (EC-GI-10)?
Answer: > 0.256 µM

Question: And the IC50 (EW-18)?
Answer: > 0.256 µM

Question: What about the IC50 (NCI-H1648) of the same molecule?
Answer: 0.0144 µM

Question: What about the IC50 (GB-1) of the same molecule?
Answer: 0.0275 µM

Question: And the IC50 697?
Answer: 0.00986 µM

Question: What about the IC50 (LXF-289 cell line) of the same molecule?
Answer: 0.0162 µM

Question: And the IC50 (NKM-1)?
Answer: 0.138 µM

Question: What about the IC50 (ONS-76) of the same molecule?
Answer: 0.0778 µM

Question: What about the IC50 (SF-126) of the same molecule?
Answer: 0.138 µM

Question: And the IC50 (EOL1)?
Answer: 0.0423 µM

Question: What about the IC50 (ES1) of the same molecule?
Answer: 0.025 µM

Question: And the IC50 (SK-UT-1)?
Answer: 0.0237 µM

Question: And the IC50 (U-266)?
Answer: 0.0698 µM

Question: And the IC50 (TGBC1TKB)?
Answer: 0.0336 µM

Question: What about the IC50 (GT3TKB) of the same molecule?
Answer: 0.0123 µM

Question: And the IC50 (SW872)?
Answer: 0.0277 µM

Question: And the IC50 (MHH-NB-11)?
Answer: 0.227 µM

Question: And the IC50 (A253 cell line)?
Answer: 0.0532 µM

Question: What about the IC50 (KMOE-2) of the same molecule?
Answer: 0.231 µM

Question: What about the IC50 (LAN-6) of the same molecule?
Answer: 0.139 µM

Question: And the IC50 (COLO-829)?
Answer: > 0.256 µM

Question: And the IC50 (MHH-PREB-1)?
Answer: 0.0208 µM

Question: And the IC50 (TE-8)?
Answer: 0.00589 µM

Question: And the IC50 (LB1047-RCC)?
Answer: 0.0254 µM

Question: What about the IC50 (NB69) of the same molecule?
Answer: > 0.256 µM

Question: And the IC50 (CTV-1)?
Answer: 0.0304 µM

Question: And the IC50 (CCRF-CEM)?
Answer: 0.0148 µM

Question: With `CCC/C=C/C=C/C(=O)O[C@H]1/C(=C/C(=O)OC)C[C@H]2C[C@H]([C@@H](C)O)OC(=O)C[C@H](O)C[C@@H]3C[C@H](OC(C)=O)C(C)(C)[C@](O)(C[C@@H]4C/C(=C/C(=O)OC)C[C@H](/C=C/C(C)(C)[C@]1(O)O2)O4)O3` [BRYOSTATIN 1] as the molecule, how does the IC50 (KNS-81-FD) read?
Answer: > 0.008 µM

Question: And the IC50 (SNU1)?
Answer: > 0.008 µM

Question: And the IC50 (COLO-668)?
Answer: > 0.008 µM

Question: What about the IC50 (VA-ES-BJ) of the same molecule?
Answer: > 0.008 µM

Question: What about the IC50 (BB49-HNC) of the same molecule?
Answer: > 0.008 µM

Question: What about the IC50 (KLE) of the same molecule?
Answer: > 0.008 µM

Question: What about the IC50 (TE-12) of the same molecule?
Answer: > 0.008 µM

Question: And the IC50 (COLO-684)?
Answer: > 0.008 µM

Question: What about the IC50 (COLO-800) of the same molecule?
Answer: > 0.008 µM

Question: What about the IC50 (SW982) of the same molecule?
Answer: > 0.008 µM

Question: What about the IC50 (CP66-MEL) of the same molecule?
Answer: > 0.008 µM

Question: And the IC50 (NCI-H510A)?
Answer: > 0.008 µM

Question: What about the IC50 (RPMI-8866) of the same molecule?
Answer: > 0.008 µM

Question: And the IC50 (DSH1)?
Answer: > 0.008 µM

Question: And the IC50 (TGBC24TKB)?
Answer: > 0.008 µM

Question: What about the IC50 (ES7) of the same molecule?
Answer: > 0.008 µM

Question: What about the IC50 (no-11) of the same molecule?
Answer: > 0.008 µM

Question: And the IC50 (SNB-75)?
Answer: > 0.008 µM

Question: What about the IC50 (ML-2) of the same molecule?
Answer: > 0.008 µM

Question: What about the IC50 (SCC-15) of the same molecule?
Answer: > 0.008 µM

Question: What about the IC50 (LS-123) of the same molecule?
Answer: > 0.008 µM

Question: What about the IC50 (HDLM-2) of the same molecule?
Answer: > 0.008 µM

Question: What about the IC50 (EC-GI-10) of the same molecule?
Answer: > 0.008 µM

Question: What about the IC50 (EW-18) of the same molecule?
Answer: > 0.008 µM

Question: What about the IC50 (NCI-H1648) of the same molecule?
Answer: > 0.008 µM

Question: What about the IC50 (GB-1) of the same molecule?
Answer: > 0.008 µM

Question: What about the IC50 697 of the same molecule?
Answer: > 0.008 µM

Question: What about the IC50 (LXF-289 cell line) of the same molecule?
Answer: > 0.008 µM

Question: And the IC50 (NKM-1)?
Answer: > 0.008 µM

Question: And the IC50 (ONS-76)?
Answer: > 0.008 µM

Question: What about the IC50 (SF-126) of the same molecule?
Answer: > 0.008 µM

Question: And the IC50 (EOL1)?
Answer: > 0.008 µM

Question: And the IC50 (ES1)?
Answer: > 0.008 µM

Question: And the IC50 (SK-UT-1)?
Answer: > 0.008 µM

Question: And the IC50 (U-266)?
Answer: > 0.008 µM

Question: What about the IC50 (TGBC1TKB) of the same molecule?
Answer: > 0.008 µM

Question: And the IC50 (GT3TKB)?
Answer: > 0.008 µM

Question: What about the IC50 (SW872) of the same molecule?
Answer: > 0.008 µM

Question: What about the IC50 (MHH-NB-11) of the same molecule?
Answer: > 0.008 µM

Question: And the IC50 (A253 cell line)?
Answer: > 0.008 µM

Question: What about the IC50 (KMOE-2) of the same molecule?
Answer: > 0.008 µM

Question: What about the IC50 (LAN-6) of the same molecule?
Answer: > 0.008 µM

Question: What about the IC50 (COLO-829) of the same molecule?
Answer: > 0.008 µM

Question: What about the IC50 (MHH-PREB-1) of the same molecule?
Answer: > 0.008 µM

Question: What about the IC50 (TE-8) of the same molecule?
Answer: > 0.008 µM

Question: What about the IC50 (LB1047-RCC) of the same molecule?
Answer: > 0.008 µM

Question: And the IC50 (NB69)?
Answer: > 0.008 µM

Question: What about the IC50 (CTV-1) of the same molecule?
Answer: > 0.008 µM

Question: And the IC50 (CCRF-CEM)?
Answer: > 0.008 µM
